Activity calls are given as the source filed them.
Assays:
Mus musculus [1] = test: Anticonvulsant activity in albino CF1 mouse assessed as protection against maximal electroshock-induced seizures at 100 mg/kg, ip after 0.5 hrs; assay type: functional, organism-based; design: dose 100 mg/kg
Mus musculus [2] = test: Neurotoxicity in albino CF1 mouse assessed as minimal motor impairment at 100 mg/kg, ip after 0.5 hrs by rotarod test; assay type: toxicity, organism-based; design: dose 100 mg/kg, route intraperitoneal; conditions: in vivo
Mus musculus [3] = organism: Mus musculus; test: Protective index, ratio of TD50 for albino CF1 mouse by rotarod test to ED50 for albino CF1 mouse by maximal electroshock seizures test; assay type: functional
Mus musculus [4] = test: Anticonvulsant activity in albino CF1 mouse assessed as protection against subcutaneous metrazole-induced seizures at 300 mg/kg, ip after 0.5 hrs; assay type: functional, organism-based; design: dose 300 mg/kg
Mus musculus [5] = test: Anticonvulsant activity against maximal electroshock-induced seizures in ip dosed albino CF1 mouse assessed as minimum effective dose after 4 hrs; assay type: functional; conditions: read-out: MED
Mus musculus [6] = test: Anticonvulsant activity in albino CF1 mouse assessed as protection against maximal electroshock-induced seizures at 300 mg/kg, ip after 4 hrs; assay type: functional, organism-based; design: dose 300 mg/kg
Rattus norvegicus [7] = test: Anticonvulsant activity in albino Sprague-Dawley rat assessed as protection against maximal electroshock-induced seizures at 30 mg/kg, po after 0.25 hrs; assay type: functional, organism-based; design: dose 30 mg/kg
Mus musculus [8] = test: Anticonvulsant activity in albino CF1 mouse assessed as protection against maximal electroshock-induced seizures at 30 mg/kg, ip after 0.5 hrs; assay type: functional, organism-based; design: dose 30 mg/kg
Mus musculus [9] = test: Neurotoxicity in albino CF1 mouse assessed as minimal motor impairment at 30 to 300 mg/kg, ip after 0.5 hrs by rotarod test; conditions: in vivo
Mus musculus [10] = test: Anticonvulsant activity against subcutaneous metrazole-induced seizures in ip dosed albino CF1 mouse assessed as minimum effective dose after 4 hrs; assay type: functional; conditions: albino CF1, 4 h, read-out: MED
Mus musculus [11] = test: Anticonvulsant activity in albino CF1 mouse assessed as protection against maximal electroshock-induced seizures at 300 mg/kg, ip after 0.5 hrs; assay type: functional, organism-based; design: dose 300 mg/kg
Mus musculus [12] = test: Neurotoxicity in albino CF1 mouse assessed as minimal motor impairment at 100 mg/kg, ip after 4 hrs by rotarod test; assay type: toxicity, organism-based; design: dose 100 mg/kg, route intraperitoneal; conditions: in vivo
[13] = biological target: Sodium channel protein type 2 subunit alpha (Homo sapiens, UniProt Q99250); test: Inhibition of human NaV1.2 expressed in HEK cells at -60 mV holding potential by patch clamp recording technique; assay type: cell-based, HEK293
Sequence of Sodium channel protein type 2 subunit alpha (Q99250 whole entry): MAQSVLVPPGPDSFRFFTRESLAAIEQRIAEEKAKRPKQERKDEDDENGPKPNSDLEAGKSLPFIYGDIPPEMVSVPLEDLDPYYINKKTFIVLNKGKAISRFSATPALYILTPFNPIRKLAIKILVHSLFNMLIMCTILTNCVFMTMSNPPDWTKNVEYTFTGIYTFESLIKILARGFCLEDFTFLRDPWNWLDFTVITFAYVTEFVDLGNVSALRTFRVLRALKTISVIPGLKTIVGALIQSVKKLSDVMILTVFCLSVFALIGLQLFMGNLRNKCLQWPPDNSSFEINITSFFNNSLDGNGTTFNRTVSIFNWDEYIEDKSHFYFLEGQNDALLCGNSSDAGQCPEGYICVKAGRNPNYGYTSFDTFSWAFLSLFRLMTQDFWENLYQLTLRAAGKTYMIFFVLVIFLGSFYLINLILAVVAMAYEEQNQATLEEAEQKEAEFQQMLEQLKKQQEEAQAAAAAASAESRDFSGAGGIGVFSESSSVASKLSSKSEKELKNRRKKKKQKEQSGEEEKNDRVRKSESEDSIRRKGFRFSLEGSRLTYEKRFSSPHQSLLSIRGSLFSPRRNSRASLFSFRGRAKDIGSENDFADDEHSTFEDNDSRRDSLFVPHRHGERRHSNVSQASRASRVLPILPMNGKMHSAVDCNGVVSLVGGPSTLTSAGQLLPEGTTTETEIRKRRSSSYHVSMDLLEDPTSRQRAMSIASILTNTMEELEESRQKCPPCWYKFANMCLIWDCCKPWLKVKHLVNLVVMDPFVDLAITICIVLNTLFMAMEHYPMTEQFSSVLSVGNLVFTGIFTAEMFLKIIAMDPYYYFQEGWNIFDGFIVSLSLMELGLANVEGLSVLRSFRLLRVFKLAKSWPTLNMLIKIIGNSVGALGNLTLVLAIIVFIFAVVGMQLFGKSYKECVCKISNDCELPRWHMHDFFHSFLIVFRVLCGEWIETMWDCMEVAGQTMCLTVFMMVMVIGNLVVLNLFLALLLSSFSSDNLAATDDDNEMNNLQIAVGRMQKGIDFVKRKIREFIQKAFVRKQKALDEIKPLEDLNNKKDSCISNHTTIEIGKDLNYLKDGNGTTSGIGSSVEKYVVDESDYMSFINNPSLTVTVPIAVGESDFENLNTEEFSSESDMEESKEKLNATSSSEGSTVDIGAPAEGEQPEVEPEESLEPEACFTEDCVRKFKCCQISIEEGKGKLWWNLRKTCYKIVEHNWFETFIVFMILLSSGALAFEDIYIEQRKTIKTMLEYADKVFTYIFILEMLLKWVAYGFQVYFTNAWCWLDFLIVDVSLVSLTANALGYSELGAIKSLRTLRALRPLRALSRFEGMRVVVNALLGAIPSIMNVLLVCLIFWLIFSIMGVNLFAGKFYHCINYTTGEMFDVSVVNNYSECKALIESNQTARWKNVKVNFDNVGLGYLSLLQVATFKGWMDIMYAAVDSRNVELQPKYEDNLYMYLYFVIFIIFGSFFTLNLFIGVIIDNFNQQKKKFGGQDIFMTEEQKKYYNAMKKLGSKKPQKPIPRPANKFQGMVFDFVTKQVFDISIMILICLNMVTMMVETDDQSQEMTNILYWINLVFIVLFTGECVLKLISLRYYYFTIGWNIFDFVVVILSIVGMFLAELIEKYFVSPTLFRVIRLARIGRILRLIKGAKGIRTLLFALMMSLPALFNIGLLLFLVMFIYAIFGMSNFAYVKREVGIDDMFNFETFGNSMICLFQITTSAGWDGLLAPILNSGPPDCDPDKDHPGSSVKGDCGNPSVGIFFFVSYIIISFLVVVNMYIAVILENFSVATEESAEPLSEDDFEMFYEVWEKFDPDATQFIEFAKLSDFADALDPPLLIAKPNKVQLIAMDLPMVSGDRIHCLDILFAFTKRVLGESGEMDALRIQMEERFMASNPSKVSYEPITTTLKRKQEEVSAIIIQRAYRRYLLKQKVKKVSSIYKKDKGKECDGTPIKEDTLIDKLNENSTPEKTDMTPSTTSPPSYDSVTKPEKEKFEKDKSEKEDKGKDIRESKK

Rattus norvegicus [14] = test: Anticonvulsant activity in albino Sprague-Dawley rat assessed as protection against maximal electroshock-induced seizures at 30 mg/kg, po after 0.5 hrs; assay type: functional, organism-based; design: dose 30 mg/kg
Mus musculus [15] = test: Anticonvulsant activity against maximal electroshock-induced seizures in ip dosed albino CF1 mouse assessed as minimum effective dose after 0.5 hrs; assay type: functional; conditions: read-out: MED
Mus musculus [16] = test: Anticonvulsant activity in albino CF1 mouse assessed as protection against subcutaneous metrazole-induced seizures at 30 mg/kg, ip after 4 hrs; assay type: functional, organism-based; design: dose 30 mg/kg
Mus musculus [17] = test: Anticonvulsant activity against subcutaneous metrazole-induced seizures in ip dosed albino CF1 mouse assessed as minimum effective dose after 0.5 hrs; assay type: functional; conditions: albino CF1, 0.5 h, read-out: MED
Mus musculus [18] = test: Protective index, ratio of TD50 for albino CF1 mouse by rotarod test to ED50 for albino CF1 mouse by subcutaneous metrazol seizures test; assay type: functional
Mus musculus [19] = test: Anticonvulsant activity in albino CF1 mouse assessed as protection against maximal electroshock-induced seizures at 70 mg/kg, ip after 0.25 hrs; assay type: functional, organism-based; design: dose 70 mg/kg
Mus musculus [20] = test: Neurotoxicity in ip dosed albino CF1 mouse assessed as minimal motor impairment after 0.25 hrs by rotarod test; assay type: toxicity, organism-based; conditions: in vivo
Mus musculus [21] = test: Neurotoxicity in ip dosed albino CF1 mouse assessed as minimum dose required to cause toxicity after 0.5 hrs by rotarod test; assay type: organism-based; conditions: in vivo
Mus musculus [22] = test: Neurotoxicity in albino CF1 mouse assessed as minimal motor impairment at 300 mg/kg, ip after 4 hrs by rotarod test; assay type: toxicity, organism-based; design: dose 300 mg/kg, route intraperitoneal; conditions: in vivo
Mus musculus [23] = test: Anticonvulsant activity in albino CF1 mouse assessed as protection against maximal electroshock-induced seizures at 35 mg/kg, ip after 0.25 hrs; assay type: functional, organism-based; design: dose 35 mg/kg
Mus musculus [24] = test: Anticonvulsant activity in albino CF1 mouse assessed as protection against subcutaneous metrazole-induced seizures at 100 mg/kg, ip after 0.5 hrs; assay type: functional, organism-based; design: dose 100 mg/kg
Mus musculus [25] = test: Anticonvulsant activity ip dosed albino CF1 mouse assessed as protection against subcutaneous metrazole-induced seizures after 0.25 hrs; assay type: functional; conditions: albino CF1, 0.25 h
Rattus norvegicus [26] = test: Anticonvulsant activity in albino Sprague-Dawley rat assessed as protection against maximal electroshock-induced seizures at 30 mg/kg, po after 2 hrs; assay type: functional, organism-based; design: dose 30 mg/kg
Rattus norvegicus [27] = test: Neurotoxicity in albino Sprague-Dawley rat assessed as minimal motor impairment at 30 mg/kg, po by rotarod test; assay type: toxicity, organism-based; design: dose 30 mg/kg, route oral; conditions: in vivo
Mus musculus [28] = test: Neurotoxicity in albino CF1 mouse assessed as minimal motor impairment at 70 mg/kg, ip after 0.25 hrs by rotarod test; assay type: toxicity, organism-based; design: dose 70 mg/kg, route intraperitoneal; conditions: in vivo
Mus musculus [29] = test: Neurotoxicity in albino CF1 mouse assessed as minimal motor impairment at 30 to 300 mg/kg, po after 4 hrs by rotarod test; assay type: toxicity, organism-based; design: dose 30-300 mg/kg, route oral; conditions: in vivo
Rattus norvegicus [30] = test: Anticonvulsant activity in albino Sprague-Dawley rat assessed as protection against maximal electroshock-induced seizures at 30 mg/kg, po after 4 hrs; assay type: functional, organism-based; design: dose 30 mg/kg
Mus musculus [31] = test: Anticonvulsant activity in albino CF1 mouse assessed as protection against subcutaneous metrazole-induced seizures at 300 mg/kg, ip after 4 hrs; assay type: functional, organism-based; design: dose 300 mg/kg
Mus musculus [32] = test: Anticonvulsant activity in albino CF1 mouse assessed as protection against subcutaneous metrazole-induced seizures at 30 mg/kg, ip after 0.5 hrs; assay type: functional, organism-based; design: dose 30 mg/kg
Mus musculus [33] = test: Anticonvulsant activity ip dosed albino CF1 mouse assessed as protection against maximal electroshock-induced seizures after 0.25 hrs; assay type: functional
Mus musculus [34] = test: Neurotoxicity in ip dosed albino CF1 mouse assessed as minimum dose required to cause toxicity after 4 hrs by rotarod test; assay type: organism-based; conditions: in vivo
Mus musculus [35] = test: Neurotoxicity in albino CF1 mouse assessed as minimal motor impairment at 300 mg/kg, ip after 0.5 hrs by rotarod test; assay type: toxicity, organism-based; design: dose 300 mg/kg, route intraperitoneal; conditions: in vivo
Mus musculus [36] = test: Anticonvulsant activity in albino CF1 mouse assessed as protection against subcutaneous metrazole-induced seizures at 100 mg/kg, ip after 4 hrs; assay type: functional, organism-based; design: dose 100 mg/kg
Mus musculus [37] = test: Anticonvulsant activity in albino CF1 mouse assessed as protection against subcutaneous metrazole-induced seizures at 70 mg/kg, ip after 0.25 hrs; assay type: functional, organism-based; design: dose 70 mg/kg
Mus musculus [38] = test: Anticonvulsant activity in albino CF1 mouse assessed as protection against maximal electroshock-induced seizures at 30 mg/kg, ip after 4 hrs; assay type: functional, organism-based; design: dose 30 mg/kg
Mus musculus [39] = test: Neurotoxicity in albino CF1 mouse assessed as minimal motor impairment at 350 mg/kg, ip after 0.25 hrs by rotarod test; assay type: toxicity, organism-based; design: dose 350 mg/kg, route intraperitoneal; conditions: in vivo
Mus musculus [40] = test: Neurotoxicity in albino CF1 mouse assessed as minimal motor impairment at 30 mg/kg, ip after 4 hrs by rotarod test; assay type: toxicity, organism-based; design: dose 30 mg/kg, route intraperitoneal; conditions: in vivo
Mus musculus [41] = test: Neurotoxicity in albino CF1 mouse assessed as minimal motor impairment at 30 mg/kg, ip after 0.5 hrs by rotarod test; assay type: toxicity, organism-based; design: dose 30 mg/kg, route intraperitoneal; conditions: in vivo

COc1ccc(-c2nc(-c3ccccc3)c[nH]2)cc1
inactive: Activity (Rattus norvegicus [7]) | Activity (Mus musculus [8]) | Activity (Rattus norvegicus [14]) | Activity (Mus musculus [16]) | Activity (Mus musculus [23]) | Activity (Mus musculus [24]) | Activity (Rattus norvegicus [26]) | Activity (Rattus norvegicus [30]) | Activity (Mus musculus [31]) | Activity (Mus musculus [32]) | Activity (Mus musculus [36]) | Activity (Mus musculus [37]) | Activity (Mus musculus [38])
100 mg/kg: minimal effective dose (Mus musculus [5]) | minimal effective dose (Mus musculus [17]) | MED (Mus musculus [21]) | MED (Mus musculus [34])
142 mg/kg: ED50 (Mus musculus [25])
> 300 mg/kg: minimal effective dose (Mus musculus [10])
4.3: PI (Mus musculus [3])
Non-toxic: Activity (Mus musculus [2]) | Activity (Mus musculus [9]) | Activity (Mus musculus [12]) | Activity (Rattus norvegicus [27]) | Activity (Mus musculus [28]) | Activity (Mus musculus [29]) | Activity (Mus musculus [40]) | Activity (Mus musculus [41])
46.8 mg/kg: ED50 (Mus musculus [33])
21.4 µM: IC50 [13]
Toxic: Activity (Mus musculus [22]) | Activity (Mus musculus [35]) | Activity (Mus musculus [39])
active: Activity (Mus musculus [1]) | Activity (Mus musculus [4]) | Activity (Mus musculus [6]) | Activity (Mus musculus [11]) | Activity (Mus musculus [19])
1.4: PI (Mus musculus [18])
200.8 mg/kg: TD50 (Mus musculus [20])
> 30 mg/kg: minimal effective dose (Mus musculus [15])

Source: ChEMBL document CHEMBL1275354, “Anticonvulsant activity of 2,4(1H)-diarylimidazoles in mice and rats acute seizure models” (Bioorg Med Chem, 2010)
